Experiments:
[1] = Partition coefficient (logP); conditions: octanol/water
[2] = Partition coefficient (logP) (heptane); conditions: heptane/water
[3] = Partition coefficient (logP) (heptane/glycol); conditions: heptane/ethylene glycol
[4] = Basolateral to apical effective permeability; conditions: not told
[5] = Apical to basolateral effective permeability; conditions: not told

CC(=O)N[C@H](Cc1ccccc1)C(=O)NCCc1ccccc1
logP [1]: 2.32 | logP [2]: -2 | logP [3]: -3.7

CC(=O)N[C@@H](C(=O)NCCc1ccccc1)C(C)C
logP [1]: 1.59 | logP [2]: -2.64 | logP [3]: -3.77

CC(=O)N[C@H](CC1CCCCC1)C(=O)NCCc1ccccc1
logP [1]: 3.13 | logP [2]: -0.9 | Papp B→A [4]: 58.4 ×10⁻⁶ cm/s | logP [3]: -3.41 | Papp A→B [5]: 58.3 ×10⁻⁶ cm/s

CC(=O)NCC(=O)NCCc1ccccc1
logP [1]: 0.48 | logP [2]: -3.73 | Papp B→A [4]: 20.6 ×10⁻⁶ cm/s | logP [3]: -5 | Papp A→B [5]: 21.9 ×10⁻⁶ cm/s

CNC(=O)[C@@H](Cc1ccccc1)NC(=O)[C@H](NC(C)=O)C(C)C
logP [1]: 0.66 | logP [2]: -5.33 | Papp B→A [4]: 1.84 ×10⁻⁶ cm/s | logP [3]: -5.79 | Papp A→B [5]: 0.91 ×10⁻⁶ cm/s
